Reference: PMC6497424 (ACS Catalysis, 2019)

What was measured:
[1] = target: T1, PtHmfF (P. thermopropionicum HmfF) (Pelotomaculum thermopropionicum, UniProt A5D4Z9); assay: X-ray crystal structure, […] Å, FMN soak; type: binding; settings: K+ and Mn2+ present; stable analogue in prFMN site; untagged enzyme
T1 construct: gene UbiD; codon-optimised, full length; pET30a C-terminal His-tag from E. coli BL21(DE3), coexpressed with E. coli UbiX; untagged (pET21b) for crystals; hexamer (D3); The eightfold dimer variant is in pET28a (His-tag)

[2] = target: T1, PtHmfF (P. thermopropionicum HmfF); assay: in vitro reconstitution of apo-enzyme; UV-vis spectra and activity; type: biochemical; settings: reduced prFMN added anaerobically, then oxidative maturation in air; FDCA 900 μM, 25 °C
[3] = target: T2, PtHmfF (P. thermopropionicum HmfF) (Pelotomaculum thermopropionicum, UniProt A5D4Z9, A315N/N348R/F351D/T355N/A388P/F393T/V395F/M399R); assay: X-ray crystal structure, […] Å; type: binding; settings: dimer variant; cofactor copurified from UbiX coexpression
T2 construct: gene UbiD; codon-optimised, full length; pET30a C-terminal His-tag from E. coli BL21(DE3), coexpressed with E. coli UbiX; untagged (pET21b) for crystals; hexamer (D3); The eightfold dimer variant is in pET28a (His-tag)

[4] = target: Pelotomaculum thermopropionicum 2,5-furandicarboxylic acid decarboxylase (HmfF), wild type, untagged (Pelotomaculum thermopropionicum); assay: crystal structure; untagged PtHmfF, space group P21, crystals soaked with FMN in the presence of K+ and Mn2+, data to 2.7 Å, six monomers in the asymmetric unit; solved by Se-Met SAD
[5] = target: Pelotomaculum thermopropionicum HmfF dimer variant (A315N, N348R, F351D, T355N, A388P, F393T, V395F, M399R) (Pelotomaculum thermopropionicum); assay: SEC-MALS; 25 °C; 500 μL of 1.5 mg/mL protein on Superdex 200 10/300GL; 200 mM KCl, 1 mM MnCl2, 50 mM Tris pH 7.5; 0.75 mL/min
[6] = target: Pelotomaculum thermopropionicum HmfF dimer variant (A315N, N348R, F351D, T355N, A388P, F393T, V395F, M399R) (Pelotomaculum thermopropionicum); assay: crystal structure; PtHmfF dimer variant with prFMN, crystals grown at 4 °C, 2.3 Å, molecular replacement with the WT monomer; two monomers in the asymmetric unit

Q: Which “X-ray crystal structure, 2.7 Å, FMN soak” value [1] does the source give for `Cc1cc2nc3c(=O)[nH]c(=O)nc-3n(C[C@H](O)[C@H](O)[C@H](O)COP(=O)(O)O)c2cc1C` [FMN] here?
A: Its value is “revealing clear electron density for both the FMN and the associated metal ions”.

Q: `Cc1cc2c3c(c1C)C(C)(C)CC=[N+]3c1c([nH]c(=O)[nH]c1=O)N2C[C@H](O)[C@H](O)[C@H](O)COP(=O)(O)O` [prFMN] was tested. Which “in vitro reconstitution of apo-enzyme; UV-vis spectra and activity” value [2] did it give?
A: Its value is “HmfF requires oxidative maturation of prFMN for activity”.

Q: And the “X-ray crystal structure, 2.3 Å” value [3]?
A: Its value is “the dimer variant crystals contain prFMN in the active site”.

Q: Which stoichiometry N [4] does the source give for “Pelotomaculum thermopropionicum 2,5-furandicarboxylic acid decarboxylase (HmfF), wild type, untagged (enzyme)” here?
A: The stoichiometry N was 6.

Q: “Pelotomaculum thermopropionicum HmfF dimer variant (A315N, N348R, F351D, T355N, A388P, F393T, V395F, M399R) (enzyme)” was tested. Which stoichiometry N [5] did it give?
A: Its stoichiometry N is 2.

Q: And the stoichiometry N [6]?
A: Its stoichiometry N is 2.
